Laboratory results as given in article PMC8126888 (RSC Medicinal Chemistry, 2020).
Where two headings read alike, the source gives them in different places.

Key:
[1] = tested on: Leishmania infantum MHOM/MA(BE)/67/ITMAP263 intracellular amastigotes; details: intracellular amastigotes in PMM
[2] = tested on: primary peritoneal mouse macrophages (PMM); experiment: cells; details: Macrophage
in vitro [3] = details: human, microsomes
in vitro [4] = details: mouse, microsomes
[5] = tested on: Leishmania infantum MHOM/MA(BE)/67/ITMAP263 intracellular amastigotes; experiment: microbe, parasite or virus in culture; details: Macrophage, in Mus musculus
in vitro [6] = details: human
in vitro [7] = details: human, HFF-1 cells
in vitro [8] = details: human, HepG2 cells
[9] = tested on: Trypanosoma cruzi, Tulahuen CL2, beta-galactosidase strain; experiment: microbe, parasite or virus in culture
in vitro [10] = details: PAMPA
[11] = read-out: PMM pIC50 (converted)
[12] = pH 7.4, Microsome Clint,u Human, Table 2, intrinsic in vitro clearance, liver microsomes
[13] = pH 7.4, Microsome Clint,u Mouse, Table 2, intrinsic in vitro clearance, liver microsomes
[14] = HPLC, Ascentis Express RP Amide column, pH 7.4, elog D, HPLC measured log D, pH 7.4
[15] = read-out: L. inf. pIC50, intracellular amastigotes in PMM (converted), geometric mean of a minimum of two experiments ± standard error
[16] = pH 7.4, HLM CLint (uL/min/mg), human liver microsomes
[17] = pH 7.4, MLM CLint (uL/min/mg), mouse liver microsomes
[18] = HPLC, Ascentis Express RP Amide column, pH 7.4, eLogD, experimental
[19] = read-out: L. Inf. pIC50, from L. infantum intracellular amastigote IC50 (converted)
[20] = read-out: L. infantum MHOM/MA(BE)/67/ITMAP263 intracellular amastigotes IC50 (uM), intracellular amastigotes
[21] = MRC5, read-out: T. cruzi Tulahuen C4 (LacZ) IC50 (uM)
[22] = pH 7.4, HLM CLint, human liver microsomes
[23] = pH 7.4, MLM CLint, mouse liver microsomes
[24] = read-out: L. infantum MHOM/MA(BE)/67/ITMAP263 intracellular amastigotes IC50, intracellular amastigotes
[25] = MRC5, read-out: T. cruzi Tulahuen C4 (LacZ) IC50
[26] = pH 7.4, Microsome Clint Human, intrinsic in vitro clearance, liver microsomes
[27] = pH 7.4, Microsome Clint Mouse, intrinsic in vitro clearance, liver microsomes
[28] = pH 7.4, elog D, HPLC measured log D, pH 7.4

Row | SMILES | IC50 [2, 11] | chromatographic logD (physchem; [14]) | IC50 [5, 15] | IC50 ([2]; read-out: PMM IC50 (uM)) | chromatographic logD (physchem; [18]) | CC50 at 3 days (in vitro [6]) | IC50 [5, 19] | IC50 [5, 20] | IC50 [9, 21] | other results
1 | COc1ccc(C#N)cc1S(=O)(=O)N(Cc1ccc(C(F)(F)F)nc1)Cc1ccc(C(F)(F)F)nc1 [Compound 50] | > 64.6 µM | 3.8 | 38.9 µM |  |  |  |  |  |  | potency against L. inf. in words [1]: inactive; microsomal CLint at 0.5 μM (in vitro [3]; [12]): < 23 µL/min/mg; microsomal CLint at 0.5 h, 0.5 µM (in vitro [4]; [13]): 95 µL/min/mg
2 | COc1ccc(CN(Cc2ccc(F)cc2)S(=O)(=O)c2cc(OC)ccc2OC)cc1 [DNDI0003388087] |  |  |  | > 64 µM | 3.5 | 5.42 µM | 11.2 µM | 11.3 µM | 9.04 µM | microsomal CLint at 0.5 μM (in vitro [3]; [16]): 80 µL/min/mg; microsomal CLint at 0.5 μM (in vitro [4]; [17]): 19 µL/min/mg; CC50 (in vitro [7]): 2.44 µM; CC50 (in vitro [8]): 33.2 µM
3 | COc1ccc(OC)c(S(=O)(=O)N(Cc2ccccc2)C2CCCNC2)c1 (stereo not drawn) [DNDI0003366131] |  |  |  |  | 3.2 | 58.5 µM | 29.5 µM |  |  | IC50 ([2]; read-out: PMM IC50): > 64 µM; microsomal CLint at 0.5 μM (in vitro [3]; [22]): 347 µL/min/mg; microsomal CLint at 0.5 μM (in vitro [4]; [23]): 96 µL/min/mg; IC50 [5, 24]: 29.5 µM; IC50 [9, 25]: 31.6 µM
4 | COc1ccc(CN(Cc2ccc(F)cc2)S(=O)(=O)c2cc(F)ccc2F)cc1 [DNDI0003388150] |  |  |  | > 64 µM |  | > 64 µM | 57.5 µM | 57 µM | 54.4 µM | CC50 (in vitro [7]): > 64 µM; CC50 (in vitro [8]): > 64 µM
5 | COCCN(Cc1ccccc1)S(=O)(=O)c1cc(C(=O)NC2COC2)ccc1OC [DNDI0003392129] |  |  |  | > 64 µM | 2.7 | > 64 µM | 15.5 µM | 15.5 µM | > 64 µM | microsomal CLint at 0.5 μM (in vitro [3]; [16]): 39 µL/min/mg; microsomal CLint at 0.5 μM (in vitro [4]; [17]): 114 µL/min/mg; Papp (in vitro [10]): 4.72 ×10⁻⁶ cm/s
6 | O=S1(=O)c2cc(F)ccc2OCC(c2ccc(F)cc2)N1Cc1ccccc1 (stereo not drawn) [DNDI0003389122] |  |  |  | 16 µM | 4.9 | > 64 µM | 10.2 µM | 10.2 µM | > 64 µM | CC50 (in vitro [7]): 12.1 µM; CC50 (in vitro [8]): > 64 µM
7 | O=S1(=O)c2cc(F)ccc2OC(c2ccc(F)cc2)CN1Cc1ccccc1 (stereo not drawn) [DNDI0003371160] |  |  |  |  | 4.9 | > 64 µM | 20.4 µM |  |  | IC50 ([2]; read-out: PMM IC50): > 64 µM; microsomal CLint at 0.5 μM (in vitro [3]; [22]): 398 µL/min/mg; microsomal CLint at 0.5 μM (in vitro [4]; [23]): 323 µL/min/mg; IC50 [5, 24]: 20.2 µM; IC50 [9, 25]: 7.97 µM
8 | COc1ccc(CN(Cc2ccc(F)cc2)S(=O)(=O)c2cc(C#N)ccc2OC)cc1 [DNDI0003371172] |  |  |  | > 64 µM |  | > 64 µM | 2.95 µM | 2.92 µM | 13.2 µM | CC50 (in vitro [7]): 22.6 µM; CC50 (in vitro [8]): 35.3 µM
9 | COCCN(Cc1ccc(F)cc1)S(=O)(=O)c1cc(C(=O)N2CCOCC2)ccc1OC [DNDI0003392125] |  |  |  | > 64 µM |  | 22.7 µM | 22.4 µM | 22.5 µM | > 64 µM | microsomal CLint at 0.5 μM (in vitro [3]; [16]): 28 µL/min/mg; microsomal CLint at 0.5 μM (in vitro [4]; [17]): 60 µL/min/mg; Papp (in vitro [10]): 15.4 ×10⁻⁶ cm/s
10 | O=S(=O)(c1cc(F)ccc1F)N(Cc1ccccc1)C(CO)c1ccc(F)cc1 (stereo not drawn) [DNDI0003378486] |  |  |  | > 64 µM |  | 21.2 µM | 35.5 µM | 35.5 µM | 13.7 µM | CC50 (in vitro [7]): 1.67 µM; CC50 (in vitro [8]): 24.4 µM
11 | COc1ccc(C#N)cc1S(=O)(=O)N(Cc1ccc(F)cc1)C1CCOCC1 [Compound 43] | > 64.6 µM | 3.4 | > 64.6 µM |  |  |  |  |  |  | potency against L. inf. in words [1]: inactive; microsomal CLint at 0.5 μM (in vitro [3]; [12]): 194 µL/min/mg; microsomal CLint at 0.5 μM (in vitro [4]; [13]): 253 µL/min/mg
12 | CNC(=O)c1ccc(OC)c(S(=O)(=O)N(CCOC)Cc2ccccc2)c1 [DNDI0003392128] |  |  |  | > 64 µM | 2.7 | > 64 µM | 28.2 µM | 28.1 µM | > 64 µM | microsomal CLint at 0.5 μM (in vitro [3]; [16]): 23 µL/min/mg; microsomal CLint at 0.5 μM (in vitro [4]; [17]): 393 µL/min/mg; Papp (in vitro [10]): 7.61 ×10⁻⁶ cm/s
13 | CS(=O)(=O)c1ccccc1S(=O)(=O)N(Cc1ccccc1)Cc1ccccc1 [Compound 14] | > 64.6 µM | 4 | 32.4 µM |  |  |  |  |  |  | microsomal CLint at 0.5 h, 0.5 µM (in vitro [3]; [26]): 417 µL/min/mg; microsomal CLint at 0.5 h, 0.5 µM (in vitro [4]; [27]): 2880 µL/min/mg
14 | COc1ccc(OC)c(S(=O)(=O)N(Cc2ccc(F)cc2)Cc2nc(C)no2)c1 [Compound 36] | > 64.6 µM | 3.5 | 7.76 µM |  |  |  |  |  |  | microsomal CLint at 0.5 μM (in vitro [3]; [12]): 350 µL/min/mg; microsomal CLint at 0.5 h, 0.5 µM (in vitro [4]; [13]): 3050 µL/min/mg
15 | Cn1cccc(S(=O)(=O)N(Cc2ccc(F)cc2)Cc2ccc(F)cc2)c1=O [Compound 31] | > 64 µM |  | 20.9 µM |  |  |  |  |  |  | microsomal CLint at 0.5 h, 0.5 µM (in vitro [3]; [26]): 676 µL/min/mg; microsomal CLint at 0.5 h, 0.5 µM (in vitro [4]; [27]): 2450 µL/min/mg; chromatographic logD (physchem; [28]): 3.7
16 | COc1ccc(OC)c(S(=O)(=O)N(Cc2ccccc2)Cc2ccccc2)c1 [Compound 9] | > 64.6 µM | 4.6 | 0.372 µM |  |  |  |  |  |  | microsomal CLint at 0.5 μM (in vitro [3]; [26]): 242 µL/min/mg; microsomal CLint at 0.5 μM (in vitro [4]; [27]): 1300 µL/min/mg
17 | COc1ccc(N2CCOCC2)cc1S(=O)(=O)N(Cc1ccc(F)cc1)Cc1ccc(F)cc1 [Compound 25] | > 64.6 µM | 4.2 | 0.324 µM |  |  |  |  |  |  | microsomal CLint at 0.5 h, 0.5 µM (in vitro [3]; [26]): 421 µL/min/mg; microsomal CLint at 0.5 h, 0.5 µM (in vitro [4]; [27]): 1400 µL/min/mg
18 | CCN(Cc1ccccc1)S(=O)(=O)c1cc(OC)ccc1OC [Compound 38] | > 64.6 µM | 3.8 | 2.09 µM |  |  |  |  |  |  | L. inf. pIC50 ([1]; geometric mean of a minimum of two experiments ± standard error): 5.60 ± 0.03; microsomal CLint at 0.5 μM (in vitro [3]; [12]): 534 µL/min/mg; microsomal CLint at 0.5 μM (in vitro [4]; [13]): 3500 µL/min/mg; chromatographic logD (physchem; [28]): 3.5
19 | COc1ccc(OC)c(S(=O)(=O)N(Cc2ccc(F)cc2)Cc2cnc(OC)nc2OC)c1 [Compound 34] | > 64.6 µM | 3.8 | 53.7 µM |  |  |  |  |  |  | microsomal CLint at 0.5 h, 0.5 µM (in vitro [3]; [12]): 498 µL/min/mg; microsomal CLint at 0.5 h, 0.5 µM (in vitro [4]; [13]): 3150 µL/min/mg
20 | COc1ccc(OC)c(S(=O)(=O)N(Cc2ccc(F)cc2)Cc2ccnn2C)c1 [Compound 35] | 45.7 µM | 3.5 | 5.25 µM |  |  |  |  |  |  | microsomal CLint at 0.5 h, 0.5 µM (in vitro [3]; [12]): 651 µL/min/mg; microsomal CLint at 0.5 μM (in vitro [4]; [13]): 5480 µL/min/mg
21 | COCCN(Cc1ccc(F)cc1)S(=O)(=O)c1ccccc1OC(F)(F)F [Compound 40] | > 64.6 µM | 3.8 | 8.32 µM |  |  |  |  |  |  | microsomal CLint at 0.5 h, 0.5 µM (in vitro [3]; [12]): 194 µL/min/mg; microsomal CLint at 0.5 h, 0.5 µM (in vitro [4]; [13]): 222 µL/min/mg
22 | COc1ncccc1S(=O)(=O)N(Cc1ccccc1)Cc1ccccc1 [Compound 30] | > 64 µM |  | 0.646 µM |  |  |  |  |  |  | microsomal CLint at 0.5 μM (in vitro [3]; [26]): 849 µL/min/mg; microsomal CLint at 0.5 h, 0.5 µM (in vitro [4]; [27]): 2570 µL/min/mg; chromatographic logD (physchem; [28]): 4.3
23 | O=[N+]([O-])c1ccc(Cl)cc1S(=O)(=O)N(Cc1ccccc1)Cc1ccc(F)cc1 [DNDI0003389123] |  |  |  | > 64 µM | 5.1 | > 64 µM | > 64 µM | > 64 µM | 26.4 µM | CC50 (in vitro [7]): > 64 µM; CC50 (in vitro [8]): > 64 µM
24 | COc1ccc(S(=O)(=O)N(Cc2ccccc2)Cc2ccccc2)cc1 [Compound 11] | > 64.6 µM | 4.7 | 45.7 µM |  |  |  |  |  |  | microsomal CLint at 0.5 μM (in vitro [3]; [26]): 184 µL/min/mg; microsomal CLint at 0.5 μM (in vitro [4]; [27]): 2410 µL/min/mg
25 | COc1ncc(Br)cc1S(=O)(=O)N(Cc1ccc(F)cc1)Cc1ccc(F)cc1 [DNDI0003369122] |  |  |  |  | 5.2 | > 64 µM | 14.8 µM |  |  | IC50 ([2]; read-out: PMM IC50): > 64 µM; microsomal CLint at 0.5 μM (in vitro [3]; [22]): 95 µL/min/mg; microsomal CLint at 0.5 μM (in vitro [4]; [23]): 469 µL/min/mg; IC50 [5, 24]: 14.8 µM; IC50 [9, 25]: 7.43 µM
26 | COc1ccc(C(=O)N2CCOCC2)cc1S(=O)(=O)N(Cc1ccccc1)Cc1ccccc1 [Compound 22] | 45.7 µM | 3.8 | 0.457 µM |  |  |  |  |  |  | microsomal CLint at 0.5 μM (in vitro [3]; [26]): 810 µL/min/mg; microsomal CLint at 0.5 h, 0.5 µM (in vitro [4]; [27]): 2020 µL/min/mg
